From US7138361B2, “Herbicidal heterocycles” (E. I. du Pont de Nemours and Company, priority 2000, dated 2006)

Legend:
Format in all cases: in vivo
[1] = tested on: cocklebur (Xanthium strumarium); test: Test B preemergence
Outline: (§1)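 Greenhouse test: chemicals are formulated in a surfactant-containing non-phytotoxic solvent and applied either preemergence to planted seeds or postemergence to plants 2 to 18 cm tall. Response is rated visually versus controls after 13 to 15 days, 0 meaning no effect and 100 complete control.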

[2] = tested on: corn (Zea mays); test: Test B preemergence
Outline: as §1

[3] = tested on: rice (Oryza saliva); test: Test B preemergence
Outline: as §1

[4] = tested on: lambsquarters (Chenopodium album); test: Test B preemergence
Outline: as §1

[5] = tested on: barnyardgrass (Echinochloa crus-galli); test: Test B preemergence
Outline: as §1

[6] = tested on: velvetleaf (Abutilon theophrasti); test: Test B preemergence
Outline: as §1

[7] = tested on: pigweed (Amaranthus retroflexus); test: Test B preemergence
Outline: as §1

[8] = tested on: giant foxtail (Setaria faberii); test: Test B preemergence
Outline: as §1

[9] = tested on: Surinam grass (Brachiaria decumbens); test: Test B preemergence
Outline: as §1

[10] = tested on: morning glory (Ipomoea hederacea); test: Test B preemergence
Outline: as §1

[11] = tested on: crabgrass (Digitaria sanguinalis); test: Test B preemergence
Outline: as §1

[12] = tested on: cocklebur (Xanthium strumarium); test: Test B postemergence; conditions: 13 to 15 days
Outline: as §1

[13] = tested on: corn (Zea mays); test: Test B postemergence; conditions: 13 to 15 days
Outline: as §1

[14] = tested on: blackgrass (Alopecurus myosuroides); test: Test B postemergence; conditions: 13 to 15 days
Outline: as §1

[15] = tested on: lambsquarters (Chenopodium album); test: Test B postemergence; conditions: 13 to 15 days
Outline: as §1

[16] = tested on: barnyardgrass (Echinochloa crus-galli); test: Test B postemergence; conditions: 13 to 15 days
Outline: as §1

[17] = tested on: velvetleaf (Abutilon theophrasti); test: Test B postemergence; conditions: 13 to 15 days
Outline: as §1

[18] = tested on: pigweed (Amaranthus retroflexus); test: Test B postemergence; conditions: 13 to 15 days
Outline: as §1

[19] = tested on: giant foxtail (Setaria faberii); test: Test B postemergence; conditions: 13 to 15 days
Outline: as §1

[20] = tested on: Surinam grass (Brachiaria decumbens); test: Test B postemergence; conditions: 13 to 15 days
Outline: as §1

[21] = tested on: morning glory (Ipomoea hederacea); test: Test B postemergence; conditions: 13 to 15 days
Outline: as §1

[22] = tested on: wild oat (Avena fatua); test: Test B postemergence; conditions: 13 to 15 days
Outline: as §1

[23] = tested on: crabgrass (Digitaria sanguinalis); test: Test B postemergence; conditions: 13 to 15 days
Outline: as §1

[24] = tested on: wheat (Triticum aestivum); test: Test B postemergence; conditions: 13 to 15 days
Outline: as §1

[25] = tested on: rice (Oryza saliva); test: Test B flooded paddy test; conditions: Rate 1000 g/ha, scale of 0 to 100 where 0 is no effect and 100 is complete control, visually evaluated after 13 to 15 days
Outline: (§2)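 Visual injury score on a 0–100 scale, where 100 means complete control, assigned against untreated controls 13 to 15 days after plants at the 2-leaf stage were treated under flooded paddy conditions.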

[26] = tested on: duck salad (Heteranthera limosa); test: Test B flooded paddy test; conditions: Rate 1000 g/ha, scale of 0 to 100 where 0 is no effect and 100 is complete control, visually evaluated after 13 to 15 days
Outline: as §2

[27] = tested on: barnyardgrass (Echinochloa crus-galli); test: Test B flooded paddy test; conditions: Rate 1000 g/ha, scale of 0 to 100 where 0 is no effect and 100 is complete control, visually evaluated after 13 to 15 days
Outline: as §2

[28] = tested on: smallflower flatsedge (Cyperus difformis); test: Test B flooded paddy test; conditions: Rate 1000 g/ha, scale of 0 to 100 where 0 is no effect and 100 is complete control, visually evaluated after 13 to 15 days
Outline: as §2

[29] = tested on: rice (Oryza saliva); test: Test C flooded paddy test; conditions: for Rice plant response rating: Flooded Paddy, scale 0 to 100, 0 no effect, 100 complete control; for Plant response rating, Rice: flooded paddy test, scale 0 to 100 (0 no effect, 100 complete control)
Outline: (§3)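 2-leaf-stage plants, flooded paddy; treated; greenhouse 12–14 days; compared with controls by eye; rated 0–100 (0 none, 100 complete control).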

[30] = tested on: duck salad (Heteranthera limosa); test: Test C flooded paddy test; conditions: for Ducksalad plant response rating: Flooded Paddy, scale 0 to 100, 0 no effect, 100 complete control; for Plant response rating, Ducksalad: flooded paddy test, scale 0 to 100 (0 no effect, 100 complete control)
Outline: as §3

[31] = tested on: barnyardgrass (Echinochloa crus-galli); test: Test C flooded paddy test; conditions: for Barnyardgrass plant response rating: Flooded Paddy, scale 0 to 100, 0 no effect, 100 complete control; for Plant response rating, Barnyardgrass: flooded paddy test, scale 0 to 100 (0 no effect, 100 complete control)
Outline: as §3

[32] = tested on: smallflower flatsedge (Cyperus difformis); test: Test C flooded paddy test; conditions: for Flatsedge plant response rating: Flooded Paddy, scale 0 to 100, 0 no effect, 100 complete control; for Plant response rating, Flatsedge: flooded paddy test, scale 0 to 100 (0 no effect, 100 complete control)
Outline: as §3

[33] = Preemergence, Rate 500 g/ha, scale 0 to 100, 0 no effect, 100 complete control
[34] = preemergence, Rate 125 g/ha, scale of 0 to 100 where 0 is no effect and 100 is complete control, 13 to 15 days
[35] = Rate 125 g/ha, scale 0 (no effect) to 100 (complete control)
[36] = Rate 500 g/ha, scale 0 to 100, 0 is no effect, 100 is complete control

## CC(C)Oc1ccn(C2CCN(c3cccc(C(F)(F)F)c3)C2=O)n1 (centres unmarked) [Compound 59]
[1]; [33]
  Plant response rating, Cocklebur: 0
[1]; [34]
  Plant response rating, Cocklebur: 0
[2]; [33]
  Plant response rating, Corn: 0
[2]; [34]
  Plant response rating, Corn: 0
[3]; [33]
  Plant response rating, Rice: 50
[3]; [34]
  Plant response rating, Rice: 0
[4]; [33]
  Plant response rating, Lambsquarters: 100
[4]; [34]
  Plant response rating, Lambsquarters: 0
[5]; [33]
  Plant response rating, Barnyardgrass: 90
[5]; [34]
  Plant response rating, Barnyardgrass: 0
[6]; [33]
  Plant response rating, Velvetleaf: 0
[6]; [34]
  Plant response rating, Velvetleaf: 0
[7]; [33]
  Plant response rating, Pigweed: 0
[7]; [34]
  Plant response rating, Pigweed: 0
[8]; [33]
  Plant response rating, Foxtail, Giant: 70
[8]; [34]
  Plant response rating, Foxtail, Giant: 0
[9]; [33]
  Plant response rating, Surinam grass: 80
[9]; [34]
  Plant response rating, Surinam grass: 60
[10]; [33]
  Plant response rating, Morningglory: 0
[10]; [34]
  Plant response rating, Morningglory: 0
[11]; [33]
  Plant response rating, Crabgrass: 90
[11]; [34]
  Plant response rating, Crabgrass: 20
[12]; [35]
  Plant response rating, Cocklebur: 0
[12]; [36]
  Plant response rating, Cocklebur: 0
[13]; [35]
  Plant response rating, Corn: 0
[13]; [36]
  Plant response rating, Corn: 0
[14]; [35]
  Plant response rating, Blackgrass: 0
[14]; [36]
  Plant response rating, Blackgrass: 0
[15]; [35]
  Plant response rating, Lambsquarters: 0
[15]; [36]
  Plant response rating, Lambsquarters: 0
[16]; [35]
  Plant response rating, Barnyardgrass: 0
[16]; [36]
  Plant response rating, Barnyardgrass: 0
[17]; [35]
  Plant response rating, Velvetleaf: 0
[17]; [36]
  Plant response rating, Velvetleaf: 0
[18]; [35]
  Plant response rating, Pigweed: 0
[18]; [36]
  Plant response rating, Pigweed: 0
[19]; [35]
  Plant response rating, Foxtail, Giant: 0
[19]; [36]
  Plant response rating, Foxtail, Giant: 0
[20]; [35]
  Plant response rating, Surinam grass: 0
[20]; [36]
  Plant response rating, Surinam grass: 0
[21]; [35]
  Plant response rating, Morningglory: 0
[21]; [36]
  Plant response rating, Morningglory: 0
[22]; [35]
  Plant response rating, Wild Oat: 0
[22]; [36]
  Plant response rating, Wild Oat: 0
[23]; [35]
  Plant response rating, Crabgrass: 0
[23]; [36]
  Plant response rating, Crabgrass: 0
[24]; [35]
  Plant response rating, Wheat: 0
[24]; [36]
  Plant response rating, Wheat: 0
[25]
  Plant response rating, Rice: 20
[26]
  Plant response rating, Ducksalad: 70
[27]
  Plant response rating, Barnyardgrass: 100
[28]
  Plant response rating, Flatsedge: 90
[29]; Rate 250 g/ha
  Rice plant response rating: 0
[29]; Rate 500 g/ha
  Rice plant response rating: 20
[29]; Rate 62 g/ha
  Plant response rating, Rice: 0
[29]; Rate 125 g/ha
  Plant response rating, Rice: 0
[30]; Rate 250 g/ha
  Ducksalad plant response rating: 0
[30]; Rate 500 g/ha
  Ducksalad plant response rating: 0
[30]; Rate 62 g/ha
  Plant response rating, Ducksalad: 0
[30]; Rate 125 g/ha
  Plant response rating, Ducksalad: 0
[31]; Rate 250 g/ha
  Barnyardgrass plant response rating: 0
[31]; Rate 500 g/ha
  Barnyardgrass plant response rating: 30
[31]; Rate 62 g/ha
  Plant response rating, Barnyardgrass: 0
[31]; Rate 125 g/ha
  Plant response rating, Barnyardgrass: 0
[32]; Rate 250 g/ha
  Flatsedge plant response rating: 0
[32]; Rate 500 g/ha
  Flatsedge plant response rating: 30
[32]; Rate 62 g/ha
  Plant response rating, Flatsedge: 0
[32]; Rate 125 g/ha
  Plant response rating, Flatsedge: 0
